Tests used:
human M4 receptor [1] = biological target: T1, human M4 receptor (Homo sapiens, UniProt P08173); experiment: cAMP assay for M4 positive allosteric modulators (M4 PAM cAMP assay); format: cell-based; set-up: expressed in transfected cells; host or cells: CHO-K1; conditions: Table 1; CHO-K1 cells expressing human M4; forskolin 7.5 μM + acetylcholine EC20 (0.2 nM)
T1 sequence (P08173 1-479): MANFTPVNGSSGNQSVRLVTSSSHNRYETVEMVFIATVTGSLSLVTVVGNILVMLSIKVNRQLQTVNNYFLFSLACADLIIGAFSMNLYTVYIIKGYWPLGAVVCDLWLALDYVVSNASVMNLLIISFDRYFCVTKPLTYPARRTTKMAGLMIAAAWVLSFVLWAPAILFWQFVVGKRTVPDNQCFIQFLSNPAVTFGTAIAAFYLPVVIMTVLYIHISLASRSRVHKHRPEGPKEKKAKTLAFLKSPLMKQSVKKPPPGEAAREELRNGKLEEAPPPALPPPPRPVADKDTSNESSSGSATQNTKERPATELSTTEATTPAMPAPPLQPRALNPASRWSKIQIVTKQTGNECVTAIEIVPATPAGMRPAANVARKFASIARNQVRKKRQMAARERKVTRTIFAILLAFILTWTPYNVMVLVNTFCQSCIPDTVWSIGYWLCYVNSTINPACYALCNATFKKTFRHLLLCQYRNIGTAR
Description: The potency of M4 PAMs was determined using a cell-based cyclic adenosine monophosphate assay. The assay was performed with CHO-Kl cells stably expressing untagged human M4 receptor and cAMP was quantified using the Nano-TRF Detection Assay kit (Roche, Cat. No. 05214386) as described in the kit instructions. The cells were grown in Ham's F-12 Nutrient mix supplemented with 10% FBS and 200 μg/ml geneticin until they reached 80% confluency. The cells were washed with PBS, detached with accutase and resuspended in assay buffer consisting of HBSS and 0.1% BSA. They were then seeded in black 384-well plates (Corning, Cat. No. 3764) at a density of 20,000 cells/20 μl per well until the addition of compounds.
Test compounds were serially diluted 1:2 in 100% DMSO and spotted in 384-well plates at 0.5 μl/well. The compounds were then diluted in water containing IBMX (Sigma, Cat. No. 17018) and a sample (5 μl) was added to the cells for 15 minutes at 37° C./5% CO2. After this incubation the cells were stimulated with a combination of forskolin (7.5 μM) and acetylcholine EC20 (0.2 nM) in assay buffer for 30 minutes at 37° C./5% CO2. The assay was stopped by adding cAMP detection mix (15 μl/well, containing detergents for cell lysis) for one hour at RT.
The test plates were read using a SpectraMax i3x reader (Molecular Devices). The exported raw data was used to calculate the FRET signal based on the P-factor as per cAMP kit instructions. The data was normalized to the activity of acetylcholine plus forskolin, with 2 nM of acetylcholine plus 7.5 μM forskolin defined as 100% activity. Dose response curves were fitted to the percent activity data of the compounds using a sigmoidal dose response model (XLfit, IDBS) and the data were reported as EC50 and percent efficacy.

human M4 receptor [2] = biological target: T1, human M4 receptor; experiment: Calcium flux assay using fluorescent imaging (M4 PAM FLIPR assay); format: cell-based; set-up: expressed in transfected cells; host or cells: CHO (monoclonal line, clone 2); conditions: Table 1; CHO cells expressing human M4+Gqi5; acetylcholine EC20
Description: CHO cells were transfected with expression plasmid encoding the human M4 receptor and a Gqi5 construct to redirect Gi signaling to calcium. Stable cells were cloned by limiting dilution to yield a monoclonal cell line expressing human M4+Gqi5 (clone 2). The stable cells were grown in DMEM containing 10% FBS, 200 ug/ml Geneticin and 800 ug/ml Hygromycin at 37° C. in a 10% CO2 incubator at 95% humidity.
Calcium Flux Assay Using Fluorescent Imaging (“M4 PAM FLIPR” Assay)
On the afternoon before the assay, cells were plated at a density of 50,000 cells/well into black 96 well plates with clear bottoms to yield a confluent monolayer the next day. Hanks balanced salt solution, without phenol red, containing 20 mM HEPES (pH 7.3) and 2.5 mM probenecid (assay buffer) was prepared fresh for each experiment. Compound dilutions were made using a Beckman Biomek 2000 laboratory automation workstation, in assay buffer. The dye-loading buffer consisted of a final concentration of 2 μM Fluo-4-AM (dissolved in DMSO and pluronic acid) and 65 μg/ml amidoblack in assay buffer. The existing culture media was removed from the wells and 100 μl of the dye-loading buffer was added to each well and incubated for approximately 90 min at 37° C. in a 5% CO2 incubator at 95% humidity.
Calcium flux in the dye-loaded cells was measured with the fluorescence reader Hamamatsu FDSS 7000. To test compounds as agonists, compound addition (25 μl) was made 10 s into the fluorescent measurements and fluorescent response was recorded for 3 minutes. The fluorescence data was expressed as percentage of the fluorescence obtained by an EC100 concentration (3 μM) of the endogenous full agonist acetylcholine. Each test compound concentration-response curve was constructed using a four parameter logistic equation in Microsoft Excel XLFit as follows:
Y=Minimum+((Maximum−Minimum)/(1+10^(LogEC50−X)nH)).
The concentration of agonist that produced a half-maximal response is represented by the EC50 value. Maximum and minimum are the maximum and minimum fluorescence signal in % respectively. nH is the Hill slope.
To measure positive allosteric modulator activity 25 μl of an EC20 concentration of the endogenous agonist acetylcholine is added to the cells already pre-incubated with the test compound for 15 minutes.
The M4 PAM dose response is constructed using the agonist dose-response equation above. The concentration of PAM that produced a half-maximal response is represented by the EC50 value and the maximum signal measured is the PAM efficacy expressed in % of the EC100 (3 μM) acetylcholine response. • cAMP Assay for M4 Positive Allosteric Modulators (“M4 PAM cAMP” Assay)

SMILES	EC50 (human M4 receptor [1]) [nM]	EC50 (human M4 receptor [2]) [nM]
Cc1nc2c(c(C)c1Cl)CN(C(=O)[C@@H]1CCN(c3ccncc3)C1)C2 [Example 3, (3-chloro-2,4-dimethyl-5,7-dihydropyrrolo[3,4-b]pyridin-6-yl)-[(3R)-1-(4-pyridyl)pyrrolidin-3-yl]methanone]	769	489
Cc1ccc(N2CC[C@@H](C(=O)N3Cc4nc(C)c(Cl)c(C)c4C3)C2)cn1 [Example 4, (3-chloro-2,4-dimethyl-5,7-dihydropyrrolo[3,4-b]pyridin-6-yl)-[(3R)-1-(6-methyl-3-pyridyl)pyrrolidin-3-yl]methanone]	690	547
Cc1cc(N2CC[C@@H](C(=O)N3Cc4nc(C)c(Cl)c(C)c4C3)C2)ccn1 [Example 5, (3-chloro-2,4-dimethyl-5,7-dihydropyrrolo[3,4-b]pyridin-6-yl)-[(3R)-1-(2-methyl-4-pyridyl)pyrrolidin-3-yl]methanone]	616	490
Cc1nc2c(c(C)c1Cl)CN(C(=O)[C@@H]1CCN(c3ccnc(C4CC4)n3)C1)C2 [Example 6, (3-chloro-2,4-dimethyl-5,7-dihydropyrrolo[3,4-b]pyridin-6-yl)-[(3R)-1-(2-cyclopropylpyrimidin-4-yl)pyrrolidin-3-yl]methanone]	3780	931
Cc1nc2c(c(C)c1Cl)CN(C(=O)[C@@H]1CCN(c3ncc(C(F)(F)F)cn3)C1)C2 [Example 7, (3-chloro-2,4-dimethyl-5,7-dihydropyrrolo[3,4-b]pyridin-6-yl)-[(3R)-1-[5-(trifluoromethyl)pyrimidin-2-yl]pyrrolidin-3-yl]methanone]	2080	1010
Cc1cnc(N2CC[C@@H](C(=O)N3Cc4nc(C)c(Cl)c(C)c4C3)C2)nc1 [Example 8, (3-chloro-2,4-dimethyl-5,7-dihydropyrrolo[3,4-b]pyridin-6-yl)-[(3R)-1-(5-methylpyrimidin-2-yl)pyrrolidin-3-yl]methanone]	5270	2350
Cc1nc2c(c(C)c1Cl)CN(C(=O)[C@@H]1CCN(c3ccc(C(F)(F)F)nc3)C1)C2 [Example 9, (3-chloro-2,4-dimethyl-5,7-dihydropyrrolo[3,4-b]pyridin-6-yl)-[(3R)-1-[6-(trifluoromethyl)-3-pyridyl]pyrrolidin-3-yl]methanone]	1070	1360
COc1ccc(N2CC[C@@H](C(=O)N3Cc4nc(C)c(Cl)c(C)c4C3)C2)cn1 [Example 10, (3-chloro-2,4-dimethyl-5,7-dihydropyrrolo[3,4-b]pyridin-6-yl)-[(3R)-1-(6-methoxy-3-pyridyl)pyrrolidin-3-yl]methanone]	1010	1030
CNc1ccc(N2CC[C@@H](C(=O)N3Cc4nc(C)c(Cl)c(C)c4C3)C2)cn1 [Example 11, (3-chloro-2,4-dimethyl-5,7-dihydropyrrolo[3,4-b]pyridin-6-yl)-[(3R)-1-[6-(methylamino)-3-pyridyl]pyrrolidin-3-yl]methanone]	446	1360
Cc1ncccc1N1CC[C@@H](C(=O)N2Cc3nc(C)c(Cl)c(C)c3C2)C1 [Example 12, (3-chloro-2,4-dimethyl-5,7-dihydropyrrolo[3,4-b]pyridin-6-yl)-[(3R)-1-(2-methyl-3-pyridyl)pyrrolidin-3-yl]methanone]	1260	1300
Cc1ccncc1N1CC[C@@H](C(=O)N2Cc3nc(C)c(Cl)c(C)c3C2)C1 [Example 13, (3-chloro-2,4-dimethyl-5,7-dihydropyrrolo[3,4-b]pyridin-6-yl)-[(3R)-1-(4-methyl-3-pyridyl)pyrrolidin-3-yl]methanone]	674	528
Cc1nc2c(c(C)c1Cl)CN(C(=O)[C@@H]1CCN(c3cncc(C(F)(F)F)c3)C1)C2 [Example 14, (3-chloro-2,4-dimethyl-5,7-dihydropyrrolo[3,4-b]pyridin-6-yl)-[(3R)-1-[5-(trifluoromethyl)-3-pyridyl]pyrrolidin-3-yl]methanone]	2180	3520
Cc1nc2c(c(C)c1Cl)CN(C(=O)[C@@H]1CCN(c3cncc(C(F)F)c3)C1)C2 [Example 15, (3-chloro-2,4-dimethyl-5,7-dihydropyrrolo[3,4-b]pyridin-6-yl)-[(3R)-1-[5-(difluoromethyl)-3-pyridyl]pyrrolidin-3-yl]methanone]	346	306
Cc1nc2c(c(C)c1Cl)CN(C(=O)[C@@H]1CCN(c3cncc(C4CC4)c3)C1)C2 [Example 16, (3-chloro-2,4-dimethyl-5,7-dihydropyrrolo[3,4-b]pyridin-6-yl)-[(3R)-1-(5-cyclopropyl-3-pyridyl)pyrrolidin-3-yl]methanone]	3640	816
Cc1nc2c(c(C)c1Cl)CN(C(=O)[C@@H]1CCN(c3cncc(OC(F)F)c3)C1)C2 [Example 17, (3-chloro-2,4-dimethyl-5,7-dihydropyrrolo[3,4-b]pyridin-6-yl)-[(3R)-1-[5-(difluoromethoxy)-3-pyridyl]pyrrolidin-3-yl]methanone]	230	240
COc1cncc(N2CC[C@@H](C(=O)N3Cc4nc(C)c(Cl)c(C)c4C3)C2)c1 [Example 18, (3-chloro-2,4-dimethyl-5,7-dihydropyrrolo[3,4-b]pyridin-6-yl)-[(3R)-1-(5-methoxy-3-pyridyl)pyrrolidin-3-yl]methanone]	166	549
Cc1nc2c(c(C)c1Cl)CN(C(=O)[C@@H]1CCN(c3cncc(S(C)(=O)=O)c3)C1)C2 [Example 19, (3-chloro-2,4-dimethyl-5,7-dihydropyrrolo[3,4-b]pyridin-6-yl)-[(3R)-1-(5-methylsulfonyl-3-pyridyl)pyrrolidin-3-yl]methanone]	379	442
Cc1nc2c(c(C)c1Cl)CN(C(=O)[C@@H]1CCN(c3ccnc(C(F)F)c3)C1)C2 [Example 20, (3-chloro-2,4-dimethyl-5,7-dihydropyrrolo[3,4-b]pyridin-6-yl)-[(3R)-1-[2-(difluoromethyl)-4-pyridyl]pyrrolidin-3-yl]methanone]	80	181

Source: patent US20220289746A1, “PYRROLIDINE DERIVATIVES” (Hoffmann-La Roche Inc., priority 2019, published 2022)
